Test results as given in patent US11104689B2, “Influenza virus replication inhibitor and use thereof” (SUNSHINE LAKE PHARMA CO., LTD., priority 2017, dated 2021).
Where two headings read alike, the source gives them in different places.

What was measured:
[1] = Cytotoxicity test group of the CPE assay (no virus added, CCK-8 kit); type: cell-based; details: dog, MDCK cells
Experimental: (§1) Experimental Procedures: MDCK cells were seeded in a 384-well plate with 2000 cells per wells, which were incubated overnight at 37° C., 5% CO2; The culture medium was changed to the fresh culture solution containing different concentrations of the compound and virus H1N1 A/Weiss/43 at a multiplicity of infection to yield 80-95% CPE on the second day. The test compound was serially diluted from the highest concentration of 100 nM in 1:3 dilutions to give 8 concentrations: 100 nM, 33.33 nM, 11.11 nM, 3.70 nM, 1.23 nM, 0.41 nM, 0.14 nM, 0.05 nM. At the same time, a non-medicated virus control group and a non-medicated cell control group free of virus were set up. No virus was added in the cytotoxicity test group but medium was added for replacement. Each group was set in duplicate, and incubated at 37° C. in 5% CO2. The cell activity was measured according to the CCK-8 kit (source: Shanghai Liji Biotechnology Co., Ltd. #D3100L4057) and the data would be used to calculate the antiviral and cytotoxicity of the compound. Data were analyzed by GraphPad Prism, CPE inhibition rate was calculated, and the EC50 was obtained according to the fitted curve. CPE inhibition rate=(absorbance of dosing hole-absorbance of virus control well)/(absorbance of cell control well-virus control well)×100%

[2] = tested on: influenza virus (A/Weiss/43(H1N1)); assay: Cytopathic effect assay (CPE assay), antiviral activity; type: cell-based; details: MDCK cells, CPE inhibition, CCK-8, read-out: EC50 against influenza virus (A/Weiss/43(H1N1)) in vitro
[3] = tested on: MDCK cells; assay: Cytotoxicity test group of the CPE assay (no virus added, CCK-8 kit); type: cell-based
Experimental: as §1

[4] = parameters: species or system Beagle dogs; details: male, beagle, dog, in vivo
Experimental: Pharmacokinetic studies of compounds of the invention in healthy adult male SD rats, dogs or monkeys were evaluated. The compound of the present invention was administered in form of a solution containing 10% DMSO+10% Kolliphor HS 15+80% physiological saline solution. For intravenous (iv) administration, animals were given with a dose of 0.2 or 1 mg/kg and blood was taken at 0.083, 0.25, 0.5, 1.0, 2.0, 5.0, 7.0, and 24 hours (0.3 mL) and centrifugated for 10 minutes at 3,000 or 4,000 rpm. For oral (po) administration, animals were given with a dose of 1 or 5 mg/kg, taken at 0.25, 0.5, 1.0, 2.0, 5.0, 7.0, and 24 hours (0.3 mL) and centrifugated at 3,000 or 4,000 rpm for 10 minutes. The plasma solution was collected and stored at −20° C. or −70° C. until the LC/MS/MS analysis was performed.

Compound	CC50 [1] [nM]	EC50 ([2]; H1N1) [nM]	further results
O=C1c2c(O)c(=O)ccn2N([C@H]2c3ccc(F)c(F)c3CSc3c2ccc2ccccc32)[C@@H]2COCCN12 (racemic) [Example 7, (R)-12-((S)-10,11-difluoro-7,12-dihydrobenzo [e]naphtho [1,2-b]thiepin-7-yl)-7-hydroxy-3,4,12,12a-tetrahydro-11H-[1,4] oxazino [3,4-c] pyrido [2,1-f] [1,2,4] triazine-6,8-dione and (S)-12-((R)-10,11-difluoro-7,12-dihydrobenzo[e]naphtho[1,2-b]thiepin-7-yl)-7-hydroxy-3,4,12,12a-tetrahydro-1H-[1,4]oxazino[3,4-c]pyrido[2,1-f][1,2,4]triazine-6,8-dione]	> 100000		
O=C1c2c(O)c(=O)ccn2N([C@H]2c3ccc(F)cc3-c3ccsc3-c3cc(F)ccc32)[C@@H]2COCCN12 [Compound (17-1), (R)-12-((S)-5,11-difluoro-8H-dibenzo[3,4:6,7]cyclohepta[1,2-b]thiophen-8-yl)-7-hydroxy-3,4,12,12a-tetrahydro-1H-[1,4]oxazino[3,4-c]pyrido[2,1-f][1,2,4]triazine-6,8-dione]	77500	18.8	
The mixture of (12aR)-12-((8R)-4-fluoro-8H-dibenzo [3,4:6,7]cyclohepta[1,2-b]thiophen-8-yl)-7-hydroxy-3,4,12,12a-tetrahydro-1H-[1,4]oxazino [3,4-c] pyrido [2,1-f] [1,2,4]triazine-6,8-dione and (12aR)-12-((8S)-4-fluoro-8H-dibenzo [3,4:6,7] cyclohept[1,2-b]thiophen-8-yl)-7-hydroxy-3,4,12,12a-tetrahydro-1H-[1,4]oxazino [3,4-c] pyrido [2,1-f] [1,2,4]triazine-6,8-dione [Example 36]			CC50 [3]: 36000 nM; EC50 [2]: 9.87 nM
O=C1c2c(O)c(=O)ccn2N([C@H]2c3ccc(F)cc3-c3ccsc3-c3ccccc32)[C@@H]2COCCN12 (mixture of isomers) [Example 37, The mixture of (R)-12-((S)-5-fluoro-8H-dibenzo[3,4:6,7]cyclohepta[1,2-b]thiophen-8-yl)-7-hydroxy-3,4,12,12a-tetrahydro-1H-[1,4]oxazino[3,4-c]pyrido[2,1-f][1,2,4]triazine-6,8-dione and (S)-12-((R)-5-fluoro-8H-dibenzo [3,4:6,7]cyclohepta[1,2-b]thiophen-8-yl)-7-hydroxy-3,4,12,12a-tetrahydro-1H-[1,4]oxazino [3,4-c]pyrido [2,1-f][1,2,4]triazine-6,8-dione]	104000	14.9	
O=C1c2c(O)c(=O)ccn2N([C@H]2c3ccc(F)cc3-c3ccsc3-c3ccccc32)[C@@H]2COCCN12 [Compound (20-1), (R)-12-((S)-5-fluoro-8H-dibenzo [3,4:6,7]cyclohept[1,2-b]thiophen-8-yl)-7-hydroxy-3,4,12,12a-tetrahydro-1H-[1,4]oxazino[3,4-c]pyrido[2,1-f][1,2,4]triazine-6,8-diketone]			EC50 [2]: 4.9 nM
O=C1c2c(O)c(=O)ccn2N([C@H]2c3ccccc3-c3cnoc3-c3ccccc32)[C@@H]2COCCN12 [Example 38, 12-(8H-Dibenzo [3,4:6,7]cyclohepta[1,2-d]isoxazol-8-yl)-7-hydroxy-3,4,12,12a-tetrahydro-1H-[1,4]oxazino[3,4-c]pyrido[2,1-f] [1,2,4]triazin-6,8-dione]	> 100000	38	
O=C1c2c(O)c(=O)ccn2N([C@@H]2c3ccccc3-c3sccc3-c3c(F)cccc32)[C@@H]2COCCN12 [Compound (21-2), (12aR)-12-((8S)-4-fluoro-8H-dibenzo [3,4:6,7]cyclohept[1,2-b]thiophen-8-yl)-7-hydroxy-3,4,12,12a-tetrahydro-1H-[1,4]oxazino[3,4-c]pyrido[2,1-f] [1,2,4]triazine-6,8-dione]		18.9	
(12aR)-12-((8R)-4,5-difluoro-2-phenyl-8H-dibenzo[3,4:6,7]cyclohept[1,2-b]thiophen-8-yl)-7-hydroxy-3,4,12,12a-tetrahydro-1H-[1,4]oxazino[3,4-c]pyrido[2,1-f] [1,2,4] triazine-6,8-dione and (12aS)-12-((8S)-4,5-difluoro-2-phenyl-8H-dibenzo[3,4:6,7]cyclohept[1,2-b]thiophen-8-yl)-7-hydroxy-3,4,12,12a-tetrahydro-1H-[1,4] oxazino [3,4-c] pyrido [2,1-f][1,2,4] triazine-6,8-dione [Example 12]			CC50 [3]: 112000 nM; EC50 [2]: 49.3 nM
O=C1c2c(O)c(=O)ccn2N([C@H]2c3ccccc3-c3ccsc3-c3ccccc32)[C@@H]2COCCN12 (racemic) [Example 2, (R)-12-((S)-8H-dibenzo [3,4:6,7]cycloheptyl [1,2-b]thiophen-8-yl)-7-hydroxy-3,4,12,12a-tetrahydro-1H-[1,4] oxazino[3,4-c] pyrido [2,1-f] [1,2,4] triazine-6,8-dione and (S)-12-((R)-8H-dibenzo [3,4:6,7]cycloheptyl [1,2-b]thiophen-8-yl)-7-hydroxy-3,4,12,12a-tetrahydro-1H-[1,4] oxazino[3,4-c] pyrido [2,1-f][1,2,4] triazine-6,8-dione]	> 100000	22.8	
O=C1c2c(O)c(=O)ccn2N(C2c3ccccc3-c3ccsc3-c3c2ccc(F)c3F)C2COCCN12 (stereo not drawn) [Example 11, 12-(11,12-Difluoro-8H-dibenzo [3,4:6,7]cycloheptyl [1,2-b]thiophen-8-yl)-7-Hydroxy-3,4,12, 12a-tetrahydro-1H-[1,4]oxazino[3,4-c]pyrido[2,1-f][1,2,4]triazine-6,8-dione]		48.7	
COC(=O)OCOc1c2n(ccc1=O)N([C@H]1c3ccc(F)cc3-c3ccsc3-c3ccccc31)[C@@H]1COCCN1C2=O [Example 28, methyl (((R)-12-((S)-5-fluoro-8H-dibenzo [3,4:6,7]cyclohept[1,2-b]thiophen-8-yl)-6,8-dioxo 3,4,6,8,12,12a-hexahydro-1H-[1,4]oxazino [3,4-c]pyrido [2,1-f] [1,2, 4]triazin-7-yl)oxy)methyl carbonate]			Conversion in animals [4]: converted to the compound of Example 21 (21-1) in animals; AUCINF ([4]; iv, 0.2 mg/kg): 1030 ng·h/mL; AUClast ([4]; iv, 0.2 mg/kg): 996 ng·h/mL; Cmax ([4]; iv, 0.2 mg/kg): 144 ng/mL; clearance ([4]; iv, 0.2 mg/kg): 3.22 mL/min/kg; t1/2 ([4]; iv, 0.2 mg/kg): 4.91 h; AUCINF ([4]; po, 1 mg/kg): 2580 ng·h/mL; AUClast ([4]; po, 1 mg/kg): 2430 ng·h/mL; Cmax ([4]; po, 1 mg/kg): 311 ng/mL; F ([4]; po, 1 mg/kg): 57.6%; t1/2 ([4]; po, 1 mg/kg): 5.72 h
COc1cccc2c1-c1ccsc1-c1ccccc1C2N1[C@@H]2COCCN2C(=O)c2c(O)c(=O)ccn21 (stereo in doubt) [Example 19, (12aR)-7-hydroxy-12-((8R)-4-methoxy-8H-dibenzo [3,4:6,7]cyclohept[1,2-b]thiophen-8-yl)-3,4,12,12a-tetrahydro-1H-[1,4]oxazino[3,4-c]pyrido[2,1-f] [1,2,4]triazine-6,8-dione]	> 100000	34.1	
O=C1c2c(O)c(=O)ccn2N(C2c3ccccc3-c3cc(Cl)sc3-c3ccccc32)[C@@H]2COCCN12 (stereo partly drawn) [Example 15, (12aR)-12-(2-chloro-8H-dibenzo [3,4:6,7]cyclohept[1,2-b]thiophen-8-yl)-7-hydroxy-3,4,12,12a-tetrahydro-1H-[1,4] oxazino [3,4-c] pyrido [2,1-f] [1,2,4]triazine-6,8-dione]	39400		
O=C1c2c(O)c(=O)ccn2N([C@H]2c3ccccc3-c3ccsc3-c3ccccc32)[C@H]2COCCN12 (racemic) [Example 3, (S)-12-((S)-8H-dibenzo [3,4:6,7]cycloheptyl [1,2-b]thiophen-8-yl)-7-hydroxy-3,4,12,12a-tetrahydro-1H-[1,4] oxazino [3,4-c] pyrido [2,1-f] [1,2,4] triazine-6,8-dione and (R)-12-((R)-8H-dibenzo [3,4:6,7]cycloheptyl [1,2-b]thiophen-8-yl)-7-hydroxy-3,4,12,12a-tetrahydro-1H-[1,4] oxazino [3,4-c] pyrido [2,1-f][1,2,4] triazine-6,8-dione]	> 100000	23.5	
O=C1c2c(O)c(=O)ccn2N(C2c3ccccc3SCc3c2ccc2ccccc32)C2COCCN12 (stereo not drawn) [Example 5, 12-(7,13-Dihydrobenzo [b]naphtho [2,1-e]thiepin-7-yl)-7-hydroxy-3,4,12,12a-tetrahydro-1H-[1,4] oxazino [3,4-c] pyrido [2,1-f] [1,2,4]triazine-6,8-dione]	> 100000		
